Measurements published in ChEMBL document CHEMBL5247643, “Discovery and Characterization of BAY-805, a Potent and Selective Inhibitor of Ubiquitin-Specific Protease USP21” (J Med Chem, 2023).
pIC50: −log10 of the molar value. Values belong to the molecule of their own block, whether it stands above or below them. Activity calls are given as the source filed them. The rule behind the calls is not given here.

Experiments:
[1] = target: T1, Ubiquitin carboxyl-terminal hydrolase 21 (Homo sapiens, UniProt Q9UK80); experiment: Inhibition of human full length USP21 using Btn-Ahx-PNIRFLD-K(Ubi)-LPQQT-GD-amide as substrate preincubated for 15 to 20 mins followed by substrate addition and measured after 25 mins by HTRF assay
T1 sequence (Q9UK80 whole entry): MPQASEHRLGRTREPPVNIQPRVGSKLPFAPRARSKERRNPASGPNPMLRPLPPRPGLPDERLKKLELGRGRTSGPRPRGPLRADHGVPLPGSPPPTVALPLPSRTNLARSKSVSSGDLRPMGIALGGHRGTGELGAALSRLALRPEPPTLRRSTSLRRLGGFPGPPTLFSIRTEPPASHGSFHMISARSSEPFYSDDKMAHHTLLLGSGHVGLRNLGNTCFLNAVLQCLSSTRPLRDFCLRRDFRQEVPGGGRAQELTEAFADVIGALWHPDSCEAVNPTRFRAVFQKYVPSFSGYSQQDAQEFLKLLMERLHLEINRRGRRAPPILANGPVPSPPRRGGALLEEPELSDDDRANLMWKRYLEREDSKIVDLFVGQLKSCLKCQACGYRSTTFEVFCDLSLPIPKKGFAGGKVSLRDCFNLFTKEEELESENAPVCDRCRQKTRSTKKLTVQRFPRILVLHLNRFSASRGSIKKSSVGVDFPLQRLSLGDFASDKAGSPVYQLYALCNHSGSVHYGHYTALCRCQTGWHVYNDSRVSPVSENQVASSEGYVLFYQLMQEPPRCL

Jurkat = experiment: Antiproliferative activity against human Jurkat cells assessed as reduction in cell viability up to 30 uM incubated for 72 hrs by CellTiter-Glo luminescent assay; type: functional, cell-based
MOLM-13 = experiment: Antiproliferative activity against human MOLM-13 cells assessed as reduction in cell viability up to 30 uM incubated for 72 hrs by CellTiter-Glo luminescent assay; type: functional, cell-based
U2OS = experiment: Antiproliferative activity against human U2OS cells assessed as reduction in cell viability up to 30 uM incubated for 72 hrs by CellTiter-Glo luminescent assay; type: functional, cell-based
MDA-MB-231 = experiment: Antiproliferative activity against human MDA-MB-231 cells assessed as reduction in cell viability up to 30 uM incubated for 72 hrs by CellTiter-Glo luminescent assay; type: functional, cell-based
A549 = experiment: Antiproliferative activity against human A549 cells assessed as reduction in cell viability up to 30 uM incubated for 72 hrs by CellTiter-Glo luminescent assay; type: functional, cell-based
[2] = target: T2, Ubiquitin carboxyl-terminal hydrolase 2 (Homo sapiens, UniProt O75604); experiment: Inhibition of human His-tagged USP2 (259 to 605 residues) using ubiquitin rhodamine 110 110 as substrate preincubated for 15 to 20 mins followed by enzyme addition and measured after 25 mins by fluorometric assay
T2 sequence (O75604 whole entry): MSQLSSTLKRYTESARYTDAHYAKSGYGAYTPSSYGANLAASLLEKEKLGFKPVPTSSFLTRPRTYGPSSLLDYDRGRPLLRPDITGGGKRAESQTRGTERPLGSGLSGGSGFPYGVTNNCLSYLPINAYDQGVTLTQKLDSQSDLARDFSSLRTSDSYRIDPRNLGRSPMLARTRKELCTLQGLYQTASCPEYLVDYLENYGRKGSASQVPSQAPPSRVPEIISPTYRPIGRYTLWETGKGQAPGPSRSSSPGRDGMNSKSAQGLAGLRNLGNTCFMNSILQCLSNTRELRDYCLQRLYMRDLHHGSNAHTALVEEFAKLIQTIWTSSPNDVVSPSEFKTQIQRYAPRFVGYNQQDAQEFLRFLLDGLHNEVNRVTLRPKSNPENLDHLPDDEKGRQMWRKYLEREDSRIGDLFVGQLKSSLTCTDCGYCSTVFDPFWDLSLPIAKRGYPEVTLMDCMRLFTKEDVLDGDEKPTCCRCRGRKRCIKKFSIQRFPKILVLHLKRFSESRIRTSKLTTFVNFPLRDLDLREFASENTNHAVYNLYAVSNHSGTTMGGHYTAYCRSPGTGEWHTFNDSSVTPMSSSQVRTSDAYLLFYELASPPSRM

- pIC50 [1]: 7.92
Structure (SMILES): N#Cc1ccc(Cc2nnc(NC(=O)[C@H](NC(=O)C3(C(F)(F)F)CCCCC3)C3CCCC3)s2)cc1

Structure (SMILES): CC(C)C[C@@H](NC(=O)C1(C(F)(F)F)CCCCC1)C(=O)Nc1nnc(Cc2ccc(C#N)cc2)s1
- Activity (Jurkat): inactive
- Activity (MOLM-13): inactive
- Activity (U2OS): inactive
- Activity (MDA-MB-231): inactive
- Activity (A549): inactive

- pIC50 [2]: 4.60
Structure (SMILES): COCC(NC(=O)C1CCCC1)C(=O)Nc1nnc(Cc2ccc([N+](=O)[O-])cc2)s1 (racemic)
